Test results as given in patent US8790889B2, “Neuronal stimulation” (The University of Queensland, priority 2009, dated 2014).
Entries after “also recorded” stand apart in the source; their conditions may differ. Structures can show the parent of a compound that is named as a salt.

Experiments:
[1] = tested on: stem cells in the hippocampus; experiment: i.p. treatment for 7 days, hippocampal neurospheres; assay type: in vivo, mouse; conditions: 10 mg/kg i.p. for 7 days
Procedure: (§1) Neurospheres with a diameter greater than […] may be derived from BRL37344 treated mice.

[2] = tested on: adult hippocampal precursors; experiment: Adult hippocampal neurosphere culture; assay type: cell-based, mouse; conditions: for effect of antagonist on norepinephrine-stimulated increase in neurosphere numbers: in presence of norepinephrine, prazosin 100 nM, propranolol 1 μM, CGP20712 10 nM, SR59230A 10 nM; for effect of antagonist on norepinephrine-stimulated increase in neurosphere numbers / increase in neurosphere numbers compared to the control: yohimbine 1 μM, ICI118,551 10 nM; for neurosphere numbers with antagonist alone / increase in neurosphere numbers compared to the control: no norepinephrine, antagonist alone
Procedure: Animals were treated in accordance with the Australian Code of Practice for the Care and Use of Animals for Scientific Purposes and ethics approval was obtained for all experiments from the Animal Ethics Committee of the University of Queensland. 8-10 week old male C57/B16 mice were killed by cervical dislocation and their brains removed. Brains were bisected along the midline in the sagittal plane. The hippocampi were isolated from the overlying cortex and minced using a scalpel blade. Minced tissue was digested in 0.1% papain (Invitrogen, Melbourne, Australia) for 20 minutes at 37° C., after which an excess of NeuroCult NSC basal medium (Stem Cell Technologies, Vancouver, Canada) was added to halt the digestion. Tissue was then centrifuged at 100 rcf for 5 minutes, the resulting pellet was resuspended in 1 ml of complete neurosphere medium, and a single cell suspension was achieved by gentle trituration. The cells were filtered through a 40 μm cell sieve (BD Biosciences, Sydney, Australia) and resuspended in NeuroCult NSC basal medium containing NeuroCult proliferation supplements (Stem Cell Technologies), 2% bovine serum albumin (Invitrogen) and 2 μg/ml heparin (Sigma-Aldrich, Sydney, Australia). The growth factors added were 20 ng/ml EGF (receptor grade, BD Biosciences) and 10 ng/ml bFGF (recombinant bovine, Roche, Basel, Switzerland). The cells were then plated in a 96-well plate and cultured in complete neurosphere medium containing EGF and bFGF, in the presence or absence of 5-hydroxytryptamine hydrochloride (serotonin; 100 nM, 1 μM, 10 μM), L-(−)-noradrenaline (+)-bitartrate salt monohydrate (norepinephrine; 100 nM, 1 μM, 10 μM) or KCl (15 mM). The adrenergic receptor antagonists used were prazosin (100 nM), yohimbine (1 μM), propranolol (1 μM), CGP20712 (10 nM), ICI118,551 (10 nM) and SR59230A (10 nM). BRL37344 was used as a selective β3 adrenergic receptor agonist. All the compounds were purchased from Sigma-Aldrich. The number of primary neurospheres was counted on day 10-13 and expressed as a percentage relative to the control.

[3] = tested on: hippocampal precursors; experiment: Intrahippocampal infusion for 7 days, hippocampal neurospheres; assay type: in vivo, mouse; conditions: 10 μM intrahippocampal infusion for 7 days
Procedure: as §1

[4] = tested on: hippocampal precursors; experiment: Slice-sphere assay (hippocampal organotypic slices, then neurosphere culture); assay type: cell-based, rat; conditions: for neurosphere frequency: FIG. 8b, 1 μM; for effect on precursor numbers / frequency of neurosphere generation: 1 μM or 10 μM
Procedure: D-glucose (Sigma-Aldrich) was added to the medium to a final concentration of 5 mM. Four filters, each containing 6-7 hippocampal slices, were generated from a single animal. Plates were incubated at 37° C. in a humidified 5% CO2 incubator and the slices were cultured for 6 days. To assess the influence of specific compounds on hippocampal precursor proliferation in the slice culture, compounds were added to the complete medium at the doses described below. Two filters were treated with the compounds for each dose per experiment. On every alternate day half the medium was removed and replaced with fresh medium containing the compounds. Slices were treated with serotonin at 10 μM and 100 μM and norepinephrine at 1 μM, 10 μM and 100 μM. […] Propranolol (10 μM) was used to block β adrenergic receptors in the slices. On the 6th day of culture, the hippocampal slices from each treatment group were pooled and the tissue was minced using a scalpel blade. Minced tissue was then treated with 0.1% trypsin-EDTA (Invitrogen) for 5 minutes at 37° C. […] A single cell suspension was achieved by gentle trituration. The total number of viable cells in an aliquot was counted on a haemocytometer based on the exclusion of 0.08% trypan blue (Sigma-Aldrich). The cells were then cultured in complete neurosphere medium containing EGF and bFGF. […] For each experiment there were 20 wells plated for each of the doses per treatment group. The plates were incubated at 37° C. in a humidified 5% CO2 incubator.

[5] = tested on: norepinephrine-stimulated large neurospheres; experiment: Hippocampal neurosphere passaging (self-renewal); assay type: cell-based, mouse; conditions: 10 μM; 15 out of 21
Description: To ascertain whether the norepinephrine-stimulated large neurospheres indeed reflected the activation of stem cells, individual neurospheres were selected and subjected to long-term passaging to assess their self-renewal capacity.
As a first step primary, neurospheres were individually dissociated and replated into fresh media not containing norepinephrine. Primary neurospheres from the unstimulated hippocampus were also passaged as single spheres. Hippocampal neurosphere cultures were initiated by removing 150 μl of the medium from wells containing single neurospheres, treating with 100 μl 0.1% trypsin-EDTA for 2 minutes at room temperature, followed by washing with 100 μl trypsin inhibitor in HEM. The neurospheres were mechanically triturated until dissociated and replated in 24 well plates in 2 ml of complete medium. Neurospheres were passaged every 10 days by centrifuging the neurospheres, removing the medium and incubating in 1 ml of 0.1% trypsin-EDTA for 2 minutes at room temperature. After the addition of an equal volume of trypsin inhibitor, the neurospheres were centrifuged at 100 rcf for 5 minutes and the supernatant removed. Cells were mechanically triturated in 500 μl of complete medium and trypan blue staining was used to evaluate the number of cells, both viable and total number, on a haemocytometer. […]

[6] = tested on: Hes5-GFP-positive cells; experiment: Neurosphere generation from FACS-sorted Hes5-GFP-positive cells; assay type: cell-based, mouse
Procedure: Brains from 8-12 weeks old male Hes5-GFP mice were removed and hippocampi were isolated as described earlier. A live cell suspension was prepared from the hippocampus using 0.1% papain, and the dead cells were labelled with propidium iodide (1 μg/ml). GFP-positive and -negative cells were then purified by fluorescence-activated cell sorting (FACS). Cells were sorted on a FACS Vantage (Becton Dickinson, Melbourne, Australia) with DIVA software. The […] was set relative to the basal fluorescence levels obtained from GFP-negative wild-type littermate controls and a conservative approach was used in selecting only high GFP-expressing cells. The cells were collected in basal medium and plated into 96-well tissue culture plates in medium containing EGF+bFGF with or without norepinephrine (10 μM).

[7] = tested on: hippocampal neurospheres; experiment: Immunocytochemistry of neurospheres (multipotentiality); assay type: cell-based, mouse
Procedure: We next determined the multipotentiality of the cells present within the neurospheres generated in the presence and absence of norepinephrine (FIG. 2b, c, d).
Control or norepinephrine-stimulated neurospheres were plated onto poly-ornithine-coated cover slips or poly-D-lysine-coated BioCoat eight-well culture slides (BD Biosciences) in serum-free basal medium without any mitogens. The neurospheres were allowed to flatten and adhere for 4-6 days in a humidified, 5% CO2 incubator. They were then fixed with 4% paraformaldehyde in 0.1M phosphate buffered saline (PBS) at 4° C. for 40 min, and immunocytochemistry was performed as described previously 38 using antibodies to the neuronal marker βIII tubulin (1:2000; Promega, Madison, Wis.), the astrocytic marker GFAP (1:500; DakoCytomation, Carpinteria, Calif.) and the oligodendrocyte marker MBP (1:500; Millipore, Sydney, Australia). 4′,6′-diamidino-2-phenylindole (DAPI; 1:5000; Sigma-Aldrich) was used as a nuclear stain. Slides were mounted using fluoromount (DakoCytomation) and viewed on a Zeiss-Axio Imager microscope. Images were captured using a digital camera linked to a computer using Zeiss software.

SMILES: CC(Cc1ccc(OCC(=O)[O-])cc1)NCC(O)c1cccc(Cl)c1.[Na+] (stereo not shown) [BRL37344]
- large neurospheres obtained [1]: increase in, large neurospheres; also recorded: increase in large neurospheres
- activation of stem cells in the hippocampus ([1]; 8 weeks old C57/B16 mice, n=7): significant activation of stem cells in the hippocampus
- neurosphere numbers compared to norepinephrine treatment ([2]; 1 μM and 10 μM, comparison 10 μM norepinephrine): increase in neurosphere numbers similar to that observed in the presence of 10 μM norepinephrine
- activation of hippocampal precursors [3]: activation of hippocampal precursors
- number of neurospheres with a diameter greater than 100 μM [3]: much greater
- total number of neurospheres derived from treated mice [3]: greater than when saline is infused

SMILES: Cn1cc(C(F)(F)F)nc1-c1ccc(OCC(O)CNCCOc2ccc(O)c(C(N)=O)c2)cc1 (stereo not shown) [CGP20712, 2-hydroxy-5-(2-[{2-hydroxy-3-(4-[1-methyl-4-trifluoromethyl-2-imidazolyl]phenoxy)-propyl}amino]ethoxy)benzamide]
- effect of antagonist on norepinephrine-stimulated increase in neurosphere numbers [2]: no such effect

SMILES: Cc1ccc(OCC(O)C(C)NC(C)C)c2c1CCC2 (stereo not shown) [ICI118,551]
- neurosphere numbers with antagonist alone [2]: significant increase
- increase in neurosphere numbers compared to the control [2]: about 34%

SMILES: [Cl-].[K+] [KCl]
- increase in neurosphere numbers ([2]; KCl 15 mM alone): 2 fold

SMILES: CCc1ccccc1OC[C@@H](O)CN[C@H]1CCCc2ccccc21.O=C(O)C(=O)O [SR59230A, 3-(2-ethylphenoxy)-1([1s]-1,2,3,4-tetrahydronaphth-1-ylamino)-2S-propanol oxalate]
- effect of antagonist on norepinephrine-stimulated increase in neurosphere numbers [2]: completely blocked; also recorded: completely inhibited

SMILES: CNCC[C@@H](Oc1ccccc1C)c1ccccc1 [atomoxetine]
- neurosphere frequency [4]: significant increase
- neurosphere frequency as percentage of the control ([4]; slices treated at 1 μM): 147.0±15.0%

SMILES: CN(C)CCCC1(c2ccc(F)cc2)OCc2cc(C#N)ccc21 (stereo not shown) [citalopram]
- neurosphere frequency as percentage of the control ([4]; slices treated at 10 μM): 113.8±9.9%
- neurosphere frequency as percentage of the control ([4]; slices treated at 100 μM): 103.8±3.8%

SMILES: CNCCC(Oc1ccc(C(F)(F)F)cc1)c1ccccc1 (stereo not shown) [fluoxetine]
- effect on precursor numbers / frequency of neurosphere generation [4]: no significant change
- effect on precursor numbers / frequency of neurosphere generation ([4]; listed as Fluoxetine): no effect

SMILES: CNCCCC12CCC(c3ccccc31)c1ccccc12 [maprotiline]
- neurosphere frequency [4]: significant increase
- neurosphere frequency as percentage of the control ([4]; slices treated at 1 μM): 258.5±25.5%

SMILES: NC[C@H](O)c1ccc(O)c(O)c1 [norepinephrine, L-(−)-noradrenaline (+)-bitartrate salt monohydrate]
- proportion of stimulated large neurospheres (>200 μm) that could be passaged over 10 times [5]: 71.4%
- neurosphere numbers compared to the control ([2]; 100 nM and 1 μM): significant increase
- size of neurospheres ([2]; 10 μM): larger than the control neurospheres
- very large neurospheres generated ([2]; norepinephrine with or without SR59230A 10 nM): 12±2.08 neurospheres
- very large neurospheres (>200 μm in diameter) ([6]; 10 μM, GFP-positive population): 7.3±0.8 neurospheres per hippocampus
- increase in neurosphere numbers ([6]; Hes5-GFP-positive cells plated at clonal density): 215.4±23.5%
- number of neurospheres from purified Hes5-GFP-positive precursor population ([6]; n=2 experiments, SR59230A 10 nM): 45.5±2.5 neurospheres
- increase in neurosphere frequency / precursor activity ([4]; slices treated at 100 μM): 3.5 fold
- neurons per stimulated large neurosphere ([7]; all large neurospheres examined, n=9): > 50 neurons
- neurospheres containing MBP-positive oligodendrocytes ([7]; stimulated neurospheres): One third
- neurospheres containing βIII tubulin-positive neurons ([7]; stimulated neurospheres examined): 62 out of 82

SMILES: COc1cc2nc(N3CCN(C(=O)c4ccco4)CC3)nc(N)c2cc1OC [prazosin]
- effect of antagonist on norepinephrine-stimulated increase in neurosphere numbers [2]: failed to inhibit

SMILES: CC(C)NCC(O)COc1cccc2ccccc12 (stereo not shown) [propranolol]
- neurosphere numbers with antagonist alone [2]: no toxic effect
- effect of antagonist on norepinephrine-stimulated increase in neurosphere numbers [2]: reduced the norepinephrine-mediated response back to control levels; also recorded: completely inhibited
- effect on norepinephrine-mediated increase in precursor activity ([4]; propranolol 10 μM in presence of norepinephrine): completely inhibit; also recorded: abolished
- effect on reboxetine-mediated increase in precursor activity ([4]; propranolol 10 μM in presence of reboxetine): completely inhibit; also recorded: abolished

SMILES: CCOc1ccccc1OC(c1ccccc1)C1CNCCO1 (stereo not shown) [reboxetine]
- frequency of neurosphere formation ([4]; 10 μM and 100 μM): significantly enhanced
- neurosphere frequency as percentage of the control ([4]; slices treated at 1 μM): 104.5±9.6%
- increase in frequency of neurosphere formation ([4]; slices treated at 10 μM): 40%
- neurosphere frequency as percentage of the control ([4]; slices treated at 100 μM): 265.0±11.7%

SMILES: Cl.NCCc1c[nH]c2ccc(O)cc12 [serotonin, 5-hydroxytryptamine hydrochloride]
- neurosphere numbers compared to the control ([2]; 100 nM, 1 μM or 10 μM, EGF and bFGF present): no change
- effect on frequency of neurosphere formation ([4]; 10 μM or 100 μM): no effect
- neurosphere frequency as percentage of the control ([4]; slices treated at 10 μM): 90.07±5.4%
- neurosphere frequency as percentage of the control ([4]; slices treated at 100 μM): 102.81±31.7%

SMILES: COC(=O)[C@@H]1[C@H]2C[C@H]3c4[nH]c5ccccc5c4CCN3C[C@@H]2CC[C@@H]1O [yohimbine]
- neurosphere numbers with antagonist alone [2]: slight but significant increase
- increase in neurosphere numbers compared to the control [2]: 40%
- effect of antagonist on norepinephrine-stimulated increase in neurosphere numbers [2]: failed to inhibit
